Values of other authors, collected in patent US7939721B2, “Cropping systems for managing weeds” (Monsanto Technology LLC, priority 2006, dated 2011).
Like-named read-outs stand apart in the source and are kept apart here.

Tested on: soybean plants transformed with dicamba monooxygenase (DMO)-encoding polynucleotide constructs
Conditions: cited from earlier work

## COc1c(Cl)ccc(Cl)c1C(=O)O [dicamba, 3,6-dichloro-o-anisic acid]
18× application rate of 10,080 g/ha (9 lb/acre)
  injury: less than 20%
Approximately 2× rate of application of 1122 g/ha
  injury: less than 2%
Early pre-emergence application, 9× the labeled application rate (5,040 g/ha, 4.5 lb/acre)
  injury: less than 10%
